Five compounds from ChEMBL document CHEMBL1123168 (J Med Chem, 1986) can be followed below.

Experiment [1] has as its system Canis familiaris. The experiment in a line: Cardiotonic activity by increasing heart rate (HR) in phenobarbital-anesthetized dogs after intravenous administration. In kind it is functional, Canis lupus familiaris.
Experiment [2] deals with Canis familiaris. The experiment in a line: Cardiotonic activity in increasing contractility in phenobarbital-anesthetized dogs after intravenous administration. It counts as functional. The note with it: Canis lupus familiaris.
Experiment [3] relates to Canis familiaris. The experiment in a line: Cardiotonic activity by decreasing mean arterial blood pressure(MAP) in phenobarbital-anesthetized dogs after intravenous administration. In kind it is functional, Canis lupus familiaris, Artery.
The target in the next experiment is Phosphodiesterase 3 (Homo sapiens, UniProt Q14432+Q13370). The experiment in a line: Cardiotonic effect by inhibition of cAMP phosphodiesterase (PDE III). In kind it is protein assay, Canis lupus familiaris.

For orientation: ED50 means the midpoint of the dose-response relation. A high value points to a need for a large dose. As a reminder, the IC50 is the concentration at which inhibition is half-maximal.

Compound `CCCc1nc(O)c(C#N)cc1-c1ccncc1` yielded a Heart rate in the experiment with Canis familiaris [1] of 25 beats min-1. The compound also returned a median effective dose (ED50) with Canis familiaris [2] of 0.748 mg/kg. Moreover, the MAP in the experiment with Canis familiaris [3] stood at 20 mmHg. Besides, the IC50 against Phosphodiesterase 3 was 38 µM.

In the experiment on Canis familiaris [1], `Cc1nc(O)c(N)cc1-c1ccncc1` displayed a Heart rate of 9 beats min-1. Further, in the experiment on Canis familiaris [2], the 50% effect level (ED50) was put at a dose of 0.055 mg/kg. In addition, in the experiment with Canis familiaris [3], the MAP came to 10 mmHg. The half-inhibitory concentration (IC50) on Phosphodiesterase 3 was determined as 31 µM.

In turn, `CCc1nc(O)c(C#N)cc1-c1ccncc1` came in with a Heart rate with Canis familiaris [1] of 19 beats min-1. In addition, the ED50 with Canis familiaris [2] is 0.12 mg/kg. This compound gave an MAP with Canis familiaris [3] of 12 mmHg. The compound further returned an IC50 on Phosphodiesterase 3 of 12 µM.

In the experiment on Canis familiaris [1], `Nc1cc(-c2ccncc2)c[nH]c1=O` [INAMRINONE] showed a Heart rate of 13 beats min-1. The ED50 in the experiment on Canis familiaris [2] turned out to be 1.89 mg/kg. Besides, the MAP with Canis familiaris [3] is 16 mmHg.

On to `Cc1[nH]c(=O)c(C#N)cc1-c1ccncc1` [MILRINONE], for which the Heart rate with Canis familiaris [1] was determined as 14 beats min-1. This compound also gave a median effective dose (ED50) with Canis familiaris [2] of 0.037 mg/kg. Further, in the experiment with Canis familiaris [3], the MAP is 10 mmHg.
